Experiments:
[1] = molecular target: T1, ATP-binding cassette sub-family C member 2 (Homo sapiens, UniProt Q92887); test: TP_TRANSPORTER: Northern blot from HepG2 cells; format: functional, cell-based
[2] = molecular target: T2, ATP-binding cassette sub-family C member 2 (Rattus norvegicus, UniProt Q63120); test: TP_TRANSPORTER: Western blot, primary hepatocytes; format: functional, cell-based, Hepatocyte
[3] = molecular target: ATP-binding cassette sub-family C member 5 (Homo sapiens, UniProt O15440); test: (§1) TP_TRANSPORTER: RT-PCR in HepG2 cells; format: functional, cell-based
Chain of ATP-binding cassette sub-family C member 5 (O15440 whole entry): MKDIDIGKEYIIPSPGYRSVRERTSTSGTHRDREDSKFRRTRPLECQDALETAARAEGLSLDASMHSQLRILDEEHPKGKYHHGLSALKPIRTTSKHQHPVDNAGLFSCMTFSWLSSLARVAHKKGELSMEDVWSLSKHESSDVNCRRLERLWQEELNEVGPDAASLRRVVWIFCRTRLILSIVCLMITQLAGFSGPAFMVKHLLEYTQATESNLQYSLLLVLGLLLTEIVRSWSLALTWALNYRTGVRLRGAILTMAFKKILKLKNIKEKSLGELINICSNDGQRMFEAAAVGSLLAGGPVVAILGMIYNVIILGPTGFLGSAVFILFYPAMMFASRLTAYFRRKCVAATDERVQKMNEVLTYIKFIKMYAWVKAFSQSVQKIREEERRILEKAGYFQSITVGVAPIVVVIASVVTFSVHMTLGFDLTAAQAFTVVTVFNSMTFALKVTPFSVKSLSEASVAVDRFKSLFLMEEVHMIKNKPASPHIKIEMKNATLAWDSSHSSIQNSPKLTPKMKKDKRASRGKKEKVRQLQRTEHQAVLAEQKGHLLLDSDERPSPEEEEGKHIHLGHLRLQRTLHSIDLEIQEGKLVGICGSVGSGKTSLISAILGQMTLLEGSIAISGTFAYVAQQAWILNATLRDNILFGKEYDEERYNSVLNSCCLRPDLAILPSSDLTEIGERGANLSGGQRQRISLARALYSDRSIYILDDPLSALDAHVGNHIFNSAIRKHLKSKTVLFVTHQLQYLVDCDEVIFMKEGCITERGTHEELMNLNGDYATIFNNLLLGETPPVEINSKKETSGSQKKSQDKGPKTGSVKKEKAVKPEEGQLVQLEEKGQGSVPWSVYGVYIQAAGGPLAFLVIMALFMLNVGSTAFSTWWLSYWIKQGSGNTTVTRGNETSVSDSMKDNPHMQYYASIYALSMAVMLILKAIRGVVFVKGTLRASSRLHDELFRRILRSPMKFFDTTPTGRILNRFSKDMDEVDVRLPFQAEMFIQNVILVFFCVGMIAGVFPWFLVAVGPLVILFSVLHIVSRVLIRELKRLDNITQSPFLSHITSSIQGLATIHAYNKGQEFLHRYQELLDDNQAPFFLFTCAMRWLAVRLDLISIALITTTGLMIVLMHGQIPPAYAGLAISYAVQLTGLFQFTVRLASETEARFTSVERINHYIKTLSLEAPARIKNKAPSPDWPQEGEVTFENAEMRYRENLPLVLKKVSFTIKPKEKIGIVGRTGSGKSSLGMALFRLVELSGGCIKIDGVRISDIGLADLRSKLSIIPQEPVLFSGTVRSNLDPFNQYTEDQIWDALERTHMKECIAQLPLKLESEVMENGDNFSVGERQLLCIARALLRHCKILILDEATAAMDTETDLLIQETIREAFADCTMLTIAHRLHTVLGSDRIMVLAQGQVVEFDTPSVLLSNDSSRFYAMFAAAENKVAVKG

[4] = molecular target: Multidrug resistance associated protein (Homo sapiens) (UniProt Q96QA9); test: as §1; format: functional, cell-based
[5] = molecular target: T2, ATP-binding cassette sub-family C member 2; test: TP_TRANSPORTER: Northern blot from primary hepatocytes; format: functional, cell-based, Hepatocyte
[6] = molecular target: T3, Multidrug resistance-associated protein 1 (Homo sapiens, UniProt P33527); test: TP_TRANSPORTER: Western blot, MCF-7 cells; format: functional, cell-based; settings: mcf7
T3 sequence (P33527 whole entry): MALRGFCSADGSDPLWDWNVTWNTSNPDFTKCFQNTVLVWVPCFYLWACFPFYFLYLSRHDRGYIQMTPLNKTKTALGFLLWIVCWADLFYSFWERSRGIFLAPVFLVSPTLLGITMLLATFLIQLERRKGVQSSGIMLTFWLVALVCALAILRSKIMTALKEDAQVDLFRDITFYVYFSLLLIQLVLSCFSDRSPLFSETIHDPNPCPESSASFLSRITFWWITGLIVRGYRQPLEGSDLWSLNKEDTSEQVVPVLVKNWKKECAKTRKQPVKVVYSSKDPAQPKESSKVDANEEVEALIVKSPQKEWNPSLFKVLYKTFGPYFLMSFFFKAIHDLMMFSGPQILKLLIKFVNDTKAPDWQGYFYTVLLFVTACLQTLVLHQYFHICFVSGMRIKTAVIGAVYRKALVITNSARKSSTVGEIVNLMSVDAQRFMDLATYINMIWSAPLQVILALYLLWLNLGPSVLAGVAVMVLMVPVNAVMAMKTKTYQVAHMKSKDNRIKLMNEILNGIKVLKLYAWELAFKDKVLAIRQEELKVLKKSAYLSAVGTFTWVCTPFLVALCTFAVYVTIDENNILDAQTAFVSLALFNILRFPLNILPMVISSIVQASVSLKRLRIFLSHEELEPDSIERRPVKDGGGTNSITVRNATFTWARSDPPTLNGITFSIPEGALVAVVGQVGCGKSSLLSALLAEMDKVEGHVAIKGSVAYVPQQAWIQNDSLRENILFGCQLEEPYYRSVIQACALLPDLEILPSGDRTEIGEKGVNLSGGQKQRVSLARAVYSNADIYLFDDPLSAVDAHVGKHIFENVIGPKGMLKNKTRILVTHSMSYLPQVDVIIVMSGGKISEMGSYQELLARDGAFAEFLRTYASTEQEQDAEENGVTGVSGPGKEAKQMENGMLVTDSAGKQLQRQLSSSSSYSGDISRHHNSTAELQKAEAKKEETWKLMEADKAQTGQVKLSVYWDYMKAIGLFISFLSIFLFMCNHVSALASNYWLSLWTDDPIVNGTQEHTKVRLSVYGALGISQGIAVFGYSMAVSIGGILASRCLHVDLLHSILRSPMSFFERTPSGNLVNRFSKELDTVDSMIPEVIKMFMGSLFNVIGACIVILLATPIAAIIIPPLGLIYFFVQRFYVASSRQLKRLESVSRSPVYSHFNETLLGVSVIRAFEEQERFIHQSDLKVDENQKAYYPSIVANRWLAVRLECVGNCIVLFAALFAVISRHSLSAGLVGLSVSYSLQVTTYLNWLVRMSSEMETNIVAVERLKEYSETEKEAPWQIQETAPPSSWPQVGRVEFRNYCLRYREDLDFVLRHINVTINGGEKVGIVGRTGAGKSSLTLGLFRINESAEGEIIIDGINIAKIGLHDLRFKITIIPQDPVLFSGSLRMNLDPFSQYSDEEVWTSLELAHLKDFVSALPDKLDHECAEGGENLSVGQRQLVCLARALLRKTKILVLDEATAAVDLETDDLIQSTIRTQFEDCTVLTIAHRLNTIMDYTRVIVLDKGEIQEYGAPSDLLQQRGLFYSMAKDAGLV

[7] = molecular target: T3, Multidrug resistance-associated protein 1; test: TP_TRANSPORTER: Northern blot from MCF-7 cells; format: functional, cell-based; settings: mcf7
[8] = molecular target: T1, ATP-binding cassette sub-family C member 2; test: as §1; format: functional, cell-based

T2 sequence (Q63120 whole entry): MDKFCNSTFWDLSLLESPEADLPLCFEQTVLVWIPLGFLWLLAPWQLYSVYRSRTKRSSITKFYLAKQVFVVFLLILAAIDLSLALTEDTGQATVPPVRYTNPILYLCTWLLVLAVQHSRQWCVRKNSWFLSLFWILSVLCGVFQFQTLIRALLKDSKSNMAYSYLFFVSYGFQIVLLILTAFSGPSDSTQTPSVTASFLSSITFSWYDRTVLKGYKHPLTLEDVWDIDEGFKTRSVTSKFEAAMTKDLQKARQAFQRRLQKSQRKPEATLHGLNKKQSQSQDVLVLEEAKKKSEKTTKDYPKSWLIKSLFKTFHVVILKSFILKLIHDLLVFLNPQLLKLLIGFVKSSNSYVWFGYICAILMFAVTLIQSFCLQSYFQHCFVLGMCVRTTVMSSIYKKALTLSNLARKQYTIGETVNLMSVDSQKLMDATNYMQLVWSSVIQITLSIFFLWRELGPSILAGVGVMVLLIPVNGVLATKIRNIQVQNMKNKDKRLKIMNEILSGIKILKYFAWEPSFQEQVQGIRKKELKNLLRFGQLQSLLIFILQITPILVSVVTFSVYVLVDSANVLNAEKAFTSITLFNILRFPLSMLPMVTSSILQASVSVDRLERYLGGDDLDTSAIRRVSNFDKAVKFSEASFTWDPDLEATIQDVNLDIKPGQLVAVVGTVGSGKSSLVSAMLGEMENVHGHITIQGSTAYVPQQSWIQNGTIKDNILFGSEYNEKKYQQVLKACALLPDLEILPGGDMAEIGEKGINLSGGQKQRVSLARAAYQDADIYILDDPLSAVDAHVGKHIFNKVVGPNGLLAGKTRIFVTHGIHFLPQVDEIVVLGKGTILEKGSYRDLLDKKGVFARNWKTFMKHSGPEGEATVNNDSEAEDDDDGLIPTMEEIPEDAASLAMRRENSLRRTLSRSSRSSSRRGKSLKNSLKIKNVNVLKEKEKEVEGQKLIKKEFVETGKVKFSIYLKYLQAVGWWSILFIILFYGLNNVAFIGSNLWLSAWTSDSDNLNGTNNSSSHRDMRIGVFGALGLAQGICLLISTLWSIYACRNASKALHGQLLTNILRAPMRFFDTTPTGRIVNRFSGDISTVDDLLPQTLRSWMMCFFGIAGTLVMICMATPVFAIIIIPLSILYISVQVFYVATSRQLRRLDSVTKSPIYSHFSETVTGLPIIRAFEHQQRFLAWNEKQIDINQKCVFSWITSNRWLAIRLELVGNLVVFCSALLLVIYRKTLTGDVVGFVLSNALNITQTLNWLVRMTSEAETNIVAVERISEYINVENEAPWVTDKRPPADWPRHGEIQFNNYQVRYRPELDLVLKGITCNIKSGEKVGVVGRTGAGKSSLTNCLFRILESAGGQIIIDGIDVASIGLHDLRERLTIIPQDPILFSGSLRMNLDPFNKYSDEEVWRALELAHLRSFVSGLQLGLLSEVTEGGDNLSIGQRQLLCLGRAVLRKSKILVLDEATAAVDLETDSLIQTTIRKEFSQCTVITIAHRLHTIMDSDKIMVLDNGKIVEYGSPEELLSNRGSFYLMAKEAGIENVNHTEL

CC(=O)Nc1ccc2c(c1)Cc1ccccc1-2 [2-ACETYLAMINOFLUORENE]
Activity [1]: inducer [+]
Activity [2]: inducer [+]
Activity [3]: inducer [+]
Activity [4]: inducer [+]
Activity [5]: inducer [+]

C[C@@H]1C[C@H]2[C@@H]3CCC4=CC(=O)C=C[C@]4(C)[C@@]3(F)[C@@H](O)C[C@]2(C)[C@@]1(O)C(=O)CO [DEXAMETHASONE]
Activity [2]: inducer [+]
Activity [5]: inducer [+]

CC(C)(C)c1cc(O)ccc1O [E319]
Activity [6]: inducer [+]
Activity [7]: inducer [+]

CCC1(c2ccccc2)C(=O)NC(=O)NC1=O [PHENOBARBITAL]
Activity [1]: inducer [+]

CO[C@H]1/C=C/O[C@@]2(C)Oc3c(C)c(O)c4c(O)c(c(/C=N/N5CCN(C)CC5)c(O)c4c3C2=O)NC(=O)/C(C)=C\C=C\[C@H](C)[C@H](O)[C@@H](C)[C@@H](O)[C@@H](C)[C@H](OC(C)=O)[C@@H]1C [RIFAMPIN]
Activity [3]: inducer [+]

CC[C@]1(O)C[C@@H]2CN(CCc3c([nH]c4ccccc34)[C@@](C(=O)OC)(c3cc4c(cc3OC)N(C)[C@H]3[C@@](O)(C(=O)OC)[C@H](OC(C)=O)[C@]5(CC)C=CCN6CC[C@]43[C@@H]65)C2)C1 [VINBLASTINE]
Activity [2]: inducer [+]
Activity [6]: inducer [+]
Activity [5]: inducer [+]
Activity [7]: inducer [+]

CISPLATIN [listing 1 of 2 here]
Activity [2]: inducer [+]
Activity [3]: inducer [+]
Activity [8]: inducer [+]
Activity [5]: inducer [+]

CISPLATIN [listing 2 of 2 here]
Activity [4]: inducer [+]

— ChEMBL document CHEMBL2074328, “Up-regulation of transporters of the MRP family by drugs and toxins” (Toxicol Lett, 2001)
